Data as given in patent publication US8912144B2, “Method for treating stroke via administration of NEP1-40 and inosine” (Children's Medical Center Corporation, priority 2003, dated 2014).

Test system: corticospinal neurons (CSNs/CSMNs)
Assay: Laser-capture microdissection and Illumina microarray gene expression in corticospinal neurons contralateral to stroke
Type: in vivo, rat
Protocol: In a separate group of animals (n=20), layer V pyramidal cells of the sensorimotor cortex were retrogradely labeled by injecting Alexa-Fluor-488-conjugated cholera toxin B subunit (CTB; 300 U/μl in sterile saline) into the cervical spinal cord. For this, animals were anesthetized with a combination of ketamine and Domitor (medetomidine) and a laminectomy was performed at the cervical level of the spinal cord (C2-C4). CTB was stereotaxically delivered into four sites lateral to the corticospinal tract. Injections (1.3 μl) were spaced 1 mm apart on the rostro-caudal axis, and were made 0.5 mm to the left and right of the midline. After allowing two weeks for transport of the tracer, we performed either sham surgery with no treatment (n=6) or stroke surgery combined with saline (n=3) or inosine (n=4) treatment as described above. Seven days later, animals were decapitated under transient gas anesthesia, brains were removed and rinsed in cold RPMI medium, and a tissue block containing the sensorimotor cortex was dissected and placed in OCT Tissue Tek Medium (Sakura Finetek USA Inc., CA) on dry ice within five minutes of death. Ten μm sections were cut onto precleaned Gold Seal RITE-ON glass slides (Gold Seal Prod-ucts, Portsmouth, N.H.), placed on dry ice, and rapidly stored at −80° C.
Slide-mounted sections were thawed and dehydrated in RNAse-free ethanol gradients and xylene. Retro-gradely labeled, fluorescent cortical pyramidal cells in the undamaged hemisphere were individually captured using the Arcturus VERITAS system. ≧500 cells were collected from each animal and stored in Arcturus extraction buffer at −80° C. Total RNA was extracted from cells using the Micro-to-Midi TotalRNA Purification System (Invitrogen, Carlsbad Calif.) and double-amplified using the TargetAmp 2-Round Aminoallyl-aRNA Amplification kit 1.0 (Epicentre, Madison, Wis.). Amplified RNA was checked for average fragment length using the Agilent RNA 6000 Nano LabChip kit (Agilent Technologies, Santa Clara, Calif.) and then biotinylated and hybridized (1 μg) on Illumina RatRef-12 Expression BeadChip arrays (Illumina, San Diego Calif.), querying the expression of >22,000 RefSeq-curated rat transcripts. Results were obtained from a total of 15 samples representing 6 untreated controls, 4 animals with stroke treated with saline and 5 animals with stroke treated with inosine. Slides were processed and scanned with Illumina BeadStation platform according to the manufacturer protocol.
Raw data was analyzed using Bioconductor packages (www.bioconductor.org, (Gentleman et al., 2004)). Low level quality-control analysis was performed using inter-array Pearson correlation and clustering based on variance. Two arrays (1 saline and 1 inosine-treated) were outliers and were excluded from the analysis. Data was normalized using quantile normalization, and analysis of differential expression was performed using a linear model fitting (LIMMA package, (Smyth, 2005). Differentially expressed genes were classified according to gene ontology using Bioconductor packages and online tools (DAVID, http://david.abcc.ncifcrf.gov/). Pathway analysis was carried out using Ingenuity Pathway Analysis (Ingenuity Systems, www.ingenuity.com).

## OC[C@H]1O[C@@H](n2cnc3c(O)ncnc32)[C@H](O)[C@@H]1O [inosine]
ILMN_53763, inosine after stroke
  Signal Intensity, MGC94053: 469
ILMN_53955
  Fold-Induction Stroke, ino vs. cntrl, Cnot7: 0.60
ILMN_53955, inosine after stroke
  Signal Intensity, Cnot7: 427
ILMN_54109
  Fold-Induction Stroke, ino vs. cntrl, Rnf11: 0.49
ILMN_54109, inosine after stroke
  Signal Intensity, Rnf11: 825
ILMN_54123
  Fold-Induction Stroke, ino vs. cntrl, Scara3: 0.78
ILMN_54123, inosine after stroke
  Signal Intensity, Scara3: 470
ILMN_54140
  Fold-Induction Stroke, ino vs. cntrl, Gabarapl2: 0.75
ILMN_54140, inosine after stroke
  Signal Intensity, Gabarapl2: 1324
ILMN_54242, over and above inosine's effect of decreasing stroke-induced changes
  Fold-induction CSMNs: Vim: 1.96 fold
ILMN_54288
  Fold-Induction Stroke, ino vs. cntrl, LOC501145: 0.70
ILMN_54288, inosine after stroke
  Signal Intensity, LOC501145: 626
ILMN_54458
  Fold-Induction Stroke, ino vs. cntrl, Echdc1: 0.67
ILMN_54458, inosine after stroke
  Signal Intensity, Echdc1: 531
ILMN_54747
  Fold-Induction Stroke, ino vs. cntrl, LOC498407: 0.64
ILMN_54747, inosine after stroke
  Signal Intensity, LOC498407: 1261
ILMN_55057
  Fold-Induction Stroke, ino vs. cntrl, Fuca2: 0.56
ILMN_55057, inosine after stroke
  Signal Intensity, Fuca2: 662
ILMN_55270
  Fold-Induction Stroke, ino vs. cntrl, Grm3: 0.50
ILMN_55270, inosine after stroke
  Signal Intensity, Grm3: 387
ILMN_55431, over and above inosine's effect of decreasing stroke-induced changes
  Fold-induction CSMNs: Rnaset2: 1.88 fold
ILMN_55502, LCM-captured CSMNs contralateral a stroke
  Fold-Induction, complement cascade gene C1qg: 3.96 fold
ILMN_55502, over and above inosine's effect of decreasing stroke-induced changes
  Fold-induction CSMNs: C1qg: 2.73 fold
ILMN_55667
  Fold-Induction Stroke, ino vs. cntrl, Map2k4: 0.65
ILMN_55667, inosine after stroke
  Signal Intensity, Map2k4: 9089
ILMN_55685
  Fold-Induction Stroke, ino vs. cntrl, LOC498618: 0.49
ILMN_55685, inosine after stroke
  Signal Intensity, LOC498618: 3089
ILMN_55706, LCM-captured CSMNs contralateral a stroke
  Fold-Induction, complement cascade gene C1s: 2.07 fold
ILMN_55706, over and above inosine's effect of decreasing stroke-induced changes
  Fold-induction CSMNs: C1s: 2.03 fold
ILMN_55731, over and above inosine's effect of decreasing stroke-induced changes
  Fold-induction CSMNs: Bzrp: 2.38 fold
ILMN_55879
  Fold-Induction Stroke, ino vs. cntrl, Klhl2: 0.78
ILMN_55879, inosine after stroke
  Signal Intensity, Klhl2: 516
ILMN_55905
  Fold-Induction Stroke, ino vs. cntrl, Tceal1: 0.57
ILMN_55905, inosine after stroke
  Signal Intensity, Tceal1: 286
ILMN_55909
  Fold-Induction Stroke, ino vs. cntrl, LOC502317: 0.40
ILMN_55909, inosine after stroke
  Signal Intensity, LOC502317: 689
ILMN_55914
  Fold-Induction Stroke, ino vs. cntrl, Nr2f1: 0.52
ILMN_55914, inosine after stroke
  Signal Intensity, Nr2f1: 526
ILMN_55995
  Fold-Induction Stroke, ino vs. cntrl, Slc16a1: 0.56
ILMN_55995, inosine after stroke
  Signal Intensity, Slc16a1: 827
ILMN_56078
  Fold-Induction Stroke, ino vs. cntrl, Tpt1: 0.89
ILMN_56078, inosine after stroke
  Signal Intensity, Tpt1: 11229
ILMN_56170
  Fold-Induction Stroke, ino vs. cntrl, Acsl3: 0.50
ILMN_56170, inosine after stroke
  Signal Intensity, Acsl3: 389
ILMN_56183
  Fold-Induction Stroke, ino vs. cntrl, Scn1a: 0.88
ILMN_56183, inosine after stroke
  Signal Intensity, Scn1a: 517
ILMN_56556
  Fold-Induction Stroke, ino vs. cntrl, Cetn3: 0.63
ILMN_56556, inosine after stroke
  Signal Intensity, Cetn3: 649
ILMN_56593
  Fold-Induction Stroke, ino vs. cntrl, Zfp68: 0.59
ILMN_56593, inosine after stroke
  Signal Intensity, Zfp68: 727
ILMN_56710
  Fold-Induction Stroke, ino vs. cntrl, Pnrc1: 0.65
ILMN_56710, inosine after stroke
  Signal Intensity, Pnrc1: 626
ILMN_56896
  Fold-Induction Stroke, ino vs. cntrl, RGD1308082: 0.62
ILMN_56896, inosine after stroke
  Signal Intensity, RGD1308082: 428
ILMN_56986
  Fold-Induction Stroke, ino vs. cntrl, Scg3: 0.69
ILMN_56986, inosine after stroke
  Signal Intensity, Scg3: 870
ILMN_57073
  Fold-Induction Stroke, ino vs. cntrl, Plp: 0.51
ILMN_57073, inosine after stroke
  Signal Intensity, Plp: 1222
ILMN_57422, over and above inosine's effect of decreasing stroke-induced changes
  Fold-induction CSMNs: Serpinb1a: 2.41 fold
ILMN_57520
  Fold-Induction Stroke, ino vs. cntrl, Lisch7: 0.69
ILMN_57520, inosine after stroke
  Signal Intensity, Lisch7: 484
ILMN_57553
  Fold-Induction Stroke, ino vs. cntrl, Olfm3: 0.62
ILMN_57553, inosine after stroke
  Signal Intensity, Olfm3: 473
ILMN_57554
  Fold-Induction Stroke, ino vs. cntrl, Vmp1: 0.57
ILMN_57554, inosine after stroke
  Signal Intensity, Vmp1: 1305
ILMN_57630
  Fold-Induction Stroke, ino vs. cntrl, Sc4mol: 0.52
ILMN_57630, inosine after stroke
  Signal Intensity, Sc4mol: 271
ILMN_57697
  Fold-Induction Stroke, ino vs. cntrl, RGD1308373: 0.66
ILMN_57697, inosine after stroke
  Signal Intensity, RGD1308373: 2921
ILMN_57719
  Fold-Induction Stroke, ino vs. cntrl, Gucy1b3: 0.57
ILMN_57719, inosine after stroke
  Signal Intensity, Gucy1b3: 3956
ILMN_57928
  Fold-Induction Stroke, ino vs. cntrl, Tnnc2: 0.48
ILMN_57928, inosine after stroke
  Signal Intensity, Tnnc2: 650
